Measured values as given in US6433019B1, “Neurotrophic factor secretion promoters” (Sumitomo Pharmaceuticals Company, Limited, priority 1998, dated 2002).
Like-named read-outs stand apart in the source and are kept apart here.

Legend:
[1] = test system: cultured brain neural cells; assay: Growth of cultured neural cells (cytotoxicity); format: cell-based, rat; conditions: high dose (1000 μM)
[2] = compared with other NO donors (Reference e5); cited from earlier work
BDNF protein = BDNF protein in the cells by EIA; format: cell-based, rat; conditions: for BDNF protein in the cells: FIG. 2C
Protocol: (§1) The following experiment was done in order to confirm the NO production by neural cells, and to clarify which isozyme of three nitric oxide synthase isozymes (References el and e2) (neuronal type; nNOS, endothelial type; eNOS and inducible type; iNOS) is involved with the NO production, The cultured neural cells were prepared by using the neural cells from the cerebral neocortex of rat embryo (E18), and culturing thereof in a serum free medium for 7 days (Reference e3). The supernatant of the culture medium was collected, and the concentration of nitrite was determined, which was used as an index for the total amount of NO production (FIG. 1A). The concentration of nitrite was determined by Griess' method (Reference e4). During the cultivation, the accumulation of nitrite in the supernatant was increased. The expression of NOS in the cultured cells was detected by Western blotting (FIG. 1B). The protein extracted from the cultured cells being electrophoresed on a nitrocellulose membrane was detected by labeling it with 3 anti-NOS antibodies (Transduction Lab., 1/500 to 1000 dilution), treating with peroxidase-labeled anti-IgG antibody, and visualizing by chemical luminescence reaction (ECL kit by Amersham Pharmacia Biotech). In the cultured neural cell sample, the nNOS-like immunoreaction was detected, but eNOS immunoreaction was hardly detected, and further INOS immunoreaction was not detected at all. The product by nNOS immunoreaction as mentioned above has a molecular weight of about 160 kD, which is coincident with that of nNOS as reported in literatures. […]
(§2) From the finding that the inhibition of NO synthesis in the cultured brain neural cells increased the expression of BDNF gene, it was clarified that endogenous NO affect the regulation of BDNF gene expression. […] SNAP was added to the culture system at various concentrations, and 3 hours and 5 hours thereafter, the BDNF MRNA was determined by quantitative RT-PCR, and the BDNF protein in the cells was determined by EIA, in the same manner as in Example 2.

BDNF-trkB complex = assay: BDNF release: sandwich immunoassay of BDNF-trkB complex on the cell surface; format: cell-based, rat; conditions: FIG. 3B
Description: The effects of an NO donor on the BDNF release were studied in order to clarify the inhibitory effects of SNAP at a high dose on the BDNF protein accumulation. First, the measurement of BDNF concentration in the culture supernatant was tried, but the concentration of BDNF therein was below a detection limitation value of an ordinary EIA, which was considered that the released BDNF immediately combines with the cell surface, even with the trkB receptor. Then, using an anti-pan-trk receptor antibody, a sandwich immunoassay was tried in order to determine the BDNF combined with a trk B receptor on the cell surface.

BDNF mRNA = BDNF mRNA by quantitative RT-PCR in cultured brain neural cells; format: cell-based, rat
Protocol: as §1, §2

[3] = test system: cultured neural cells from the cerebral neocortex of rat embryo (E18); assay: NO production (nitrite, Griess' method) in the cultured neural cells; format: cell-based; conditions: 3 hours and 5 hours after addition, FIG. 2A
Protocol: as §1, with “During the cultivation, the accumulation of nitrite in the supernatant was increased.” left out, “all.” for “all. The product by nNOS immunoreaction as mentioned above has a molecular weight of about 160 kD, which is coincident with that of nNOS as reported in literatures.”

[4] = cited from earlier work; for serious side effects: oral administration to human, estimated
[5] = rats, cited from earlier work

Which results are given for `CC(=O)NC(C(=O)O)C(C)(C)SN=O` (racemic) [SNAP, S-nitroso-N-acetyl-DL-penicillamine]?
growth of cells [1]: no change in the growth of cells; cytotoxicity [2]: weaker than that of other NO donors; BDNF protein in the cells (BDNF protein; higher dose than 30 μM): dose-dependent decrease; BDNF protein in the cells (BDNF protein; only at 30 μM): increased; amount of the BDNF-trkB complex (BDNF-trkB complex; dose of 100 μM or more): significantly increased; expression of BDNF gene (BDNF mRNA; lower dose (30 to 300 μM), FIG. 2B): increased dose-dependently; expression of BDNF mRNA (BDNF mRNA; quite high dose (1000 μM), FIG. 2B): inhibited; NO release from the NO donor (nitrite) [3]: NO was released from the NO donor

Which toxicity ([4]; up to 20 g per day of arginine glutamate by intravenous drip) does the source give for `N=C(N)NCCC[C@H](N)C(=O)O` [arginine] here?
Its toxicity is “quite low”.

For `N[C@@H](CCC(=O)O)C(=O)O` [glutamic acid], which “BDNF synthesis promoting activity” value (BDNF protein) is on record?
The value was “potent BDNF synthesis promoting activity”.

And the “BDNF secretion promoting activity” value (BDNF-trkB complex)?
Its value is “did not show a distinguished BDNF secretion promoting activity”.

With `O=[N+]([O-])OCC(CO[N+](=O)[O-])O[N+](=O)[O-]` [NTG, nitroglycerin] as the molecule, how does the serious side effects ([4]; dose up to several mg per day) read?
Its serious side effects is “does not show serious side effects”.

Which “expression of BDNF gene” value (BDNF mRNA; dose not given) does the source give for `COCC(/C(C)=C/C(=N/O)C(N)=O)[N+](=O)[O-]` (stereo not shown) [NOR1] here?
The value was “exhibited the same promoting activity”.

For `O=[N+]([O-])O[C@H]1CO[C@H]2[C@@H]1OC[C@H]2O[N+](=O)[O-]` [ISDN, isosorbide dinitrate], which serious side effects ([4]; dose up to dozens mg per day) is on record?
Its serious side effects is “does not show serious side effects”.

With `O=[N+]([O-])O[C@@H]1CO[C@H]2[C@@H]1OC[C@@H]2O` [ISMN, isosorbide mononitrate] as the molecule, how does the LD50 ([5]; i.v.) read?
Its LD50 is 40 mg/kg.

And the LD50 ([5]; p.o.)?
The LD50 was 1050 to 1550 mg/kg.
